Test results as given in ChEMBL document CHEMBL1146975, “Identification of cytotoxic, T-cell-selective 1,4-benzodiazepine-2,5-diones” (Bioorg Med Chem Lett, 2006).

Assays:
[1] = tested on: Ramos; assay: Cytotoxicity against human Ramos B cells; format: functional, cell-based
[2] = tested on: Jurkat; assay: Cytotoxicity against human Jurkat T cells; format: functional, cell-based
[3] = Selectivity for Jurkat T cells over Ramos B cells; format: functional

SMILES | EC50 [1] | EC50 [2] | Ratio EC50 [3]
CN1C(=O)C(Cc2ccc(-c3ccc(C(=O)O)cc3)cc2)NC(=O)c2cc(Cl)ccc21 (stereo not drawn) | 31.8 µM | 15.1 µM | 2.1
CN1C(=O)C(Cc2cccc3ccccc23)NC(=O)c2cc(Cl)ccc21 (stereo not drawn) | 12.6 µM | 20.5 µM | 
CN1C(=O)C(Cc2ccc(-c3cccc(Br)c3)cc2)NC(=O)c2cc(Cl)ccc21 (stereo not drawn) | 9.2 µM | 4.8 µM | 1.9
CN1C(=O)C(Cc2ccc(-c3cccc(Cl)c3)cc2)NC(=O)c2cc(Cl)ccc21 (stereo not drawn) | 1.5 µM | 2 µM | 0.8
CN1C(=O)C(Cc2ccc(-c3ccc(Br)cc3)cc2)NC(=O)c2cc(Cl)ccc21 (stereo not drawn) | > 20 µM | 9.8 µM | >2
Cc1ccccc1-c1ccc(CC2NC(=O)c3cc(Cl)ccc3N(C)C2=O)cc1 (stereo not drawn) | 6.7 µM | 5.4 µM | 1.2
CN1C(=O)C(Cc2ccc(-c3cccc(C(F)(F)F)c3)cc2)NC(=O)c2cc(Cl)ccc21 (stereo not drawn) | 4 µM | 4.5 µM | 0.9
CN1C(=O)C(Cc2ccccc2)NC(=O)c2cc(Cl)ccc21 (stereo not drawn) | > 100 µM | > 80 µM | 
CN1C(=O)C(CCc2ccccc2)NC(=O)c2cc(Cl)ccc21 (stereo not drawn) | > 100 µM | > 80 µM | 
CN1C(=O)C(Cc2ccc(-c3ccccc3[N+](=O)[O-])cc2)NC(=O)c2cc(Cl)ccc21 (stereo not drawn) | > 20 µM | > 20 µM | 
CN1C(=O)C(Cc2ccc(-c3cccc([N+](=O)[O-])c3)cc2)NC(=O)c2cc(Cl)ccc21 (stereo not drawn) | 4.2 µM | 1.5 µM | 2.8
CN1C(=O)C(Cc2ccc(-c3ccc([N+](=O)[O-])cc3)cc2)NC(=O)c2cc(Cl)ccc21 (stereo not drawn) | 10 µM | 3.8 µM | 2.6
CN1C(=O)C(Cc2ccc(-c3ccc(O)cc3)cc2)NC(=O)c2cc(Cl)ccc21 (stereo not drawn) | 6 µM | 1.5 µM | 4
CN1C(=O)C(Cc2ccc(-c3ccccc3Cl)cc2)NC(=O)c2cc(Cl)ccc21 (stereo not drawn) | 10.3 µM | 8.3 µM | 1.2
Cc1ccc(-c2ccc(CC3NC(=O)c4cc(Cl)ccc4N(C)C3=O)cc2)cc1 (stereo not drawn) | 6.9 µM | 3.6 µM | 1.9
CN1C(=O)C(Cc2ccc(-c3ccccc3)cc2)NC(=O)c2cc(Cl)ccc21 (stereo not drawn) | 6.2 µM | 2.3 µM | 
CN1C(=O)C(Cc2ccc(-c3cccnc3)cc2)NC(=O)c2cc(Cl)ccc21 (stereo not drawn) | 6 µM | 0.6 µM | 10
CN1C(=O)C(Cc2ccc(-c3ccc(C(F)(F)F)cc3)cc2)NC(=O)c2cc(Cl)ccc21 (stereo not drawn) | 4.8 µM | 5.2 µM | 0.9
CN1C(=O)C(Cc2cccc(-c3ccccc3)c2)NC(=O)c2cc(Cl)ccc21 (stereo not drawn) | 19.1 µM | 5.4 µM | 
CN1C(=O)C(Cc2ccc(-c3cccc(O)c3)cc2)NC(=O)c2cc(Cl)ccc21 (stereo not drawn) | 4 µM | 1.5 µM | 2.7
Cc1cccc(-c2ccc(CC3NC(=O)c4cc(Cl)ccc4N(C)C3=O)cc2)c1 (stereo not drawn) | 2.8 µM | 3.1 µM | 0.9
CN1C(=O)C(Cc2ccc(-c3cccc(C(=O)O)c3)cc2)NC(=O)c2cc(Cl)ccc21 (stereo not drawn) | > 20 µM | > 20 µM | 
CN1C(=O)C(Cc2ccc(C(C)(C)C)cc2)NC(=O)c2cc(Cl)ccc21 (stereo not drawn) | 16.2 µM | 8.2 µM | 
CN1C(=O)C(Cc2ccc(-c3ccc(Cl)cc3)cc2)NC(=O)c2cc(Cl)ccc21 (stereo not drawn) | 6.5 µM | 6.5 µM | 1
CN1C(=O)C(Cc2ccccc2Cc2ccccc2)NC(=O)c2cc(Cl)ccc21 (stereo not drawn) | 18.6 µM | 17.6 µM | 
CN1C(=O)C(Cc2c[nH]c3ccccc23)NC(=O)c2cc(Cl)ccc21 (stereo not drawn) | 9.2 µM | 26.2 µM | 
CN1C(=O)C(Cc2ccc(/C=C/c3ccccc3)cc2)NC(=O)c2cc(Cl)ccc21 (stereo not drawn) | 50.3 µM | 7.5 µM | 
CN1C(=O)C(Cc2ccc(-c3ccncc3)cc2)NC(=O)c2cc(Cl)ccc21 (stereo not drawn) | 3 µM | 0.5 µM | 6
CN1C(=O)C(Cc2ccc(-c3ccoc3)cc2)NC(=O)c2cc(Cl)ccc21 (stereo not drawn) | 2 µM | 0.3 µM | 6.5
CN1C(=O)C(Cc2ccc3ccccc3c2)NC(=O)c2cc(Cl)ccc21 (stereo not drawn) | 10.7 µM | 3 µM | 
